Experimental data from patent US9156811B2 (priority 2008, dated 2015).
Structures can show the parent of a compound that is named as a salt.

Tested on: Trypanosome (T. brucei brucei)
Assay: In-vitro antitrypanosomal efficacy assay (cell growth, resazurin)
Type: cell-based
Details: not given

| Structure (SMILES) | ED50 (μM) T. brucei [µM] |
| --- | --- |
| Cc1nn(C)c(C)c1N(C(F)F)[S+](=O)([O-])c1c(Cl)cc(CCCC2CCNCC2)cc1Cl [DDD100096, 2,6-Dichloro-N-(difluoromethyl)-4-(3-(piperidin-4-yl)propyl)-N-(1,3,5-trimethyl-4H-pyrazol-4-yl)benzenesulfonamide hydrochloride salt] | 0.003 |

Same assay, conditions: T. brucei brucei, blood stream form, variant 221

| Structure (SMILES) | ED50 (μM) T. brucei [µM] |
| --- | --- |
| Cc1ccc(-c2ccc([S+](=O)([O-])Nc3c(CC(C)C)nn(C)c3C)cc2)cc1CN(C)C [DDD99824] | 0.014 |
| Cc1nn(C)c(C)c1N(C)[S+](=O)([O-])c1ccc(CCCCCCCN(C)C)cc1 [DDD99825] | 0.054 |
| Cc1c(N[S+](=O)([O-])c2ccc(-c3cc(CN(C)C)ccc3Cl)cc2)c(CC(C)C)nn1C [DDD99826] | 0.104 |
| Cc1nn(C)c(C)c1N[S+](=O)([O-])c1ccc(CCCCC2CCN(C)CC2)cc1 [DDD99830] | 0.020 |
| Cc1c(N[S+](=O)([O-])c2ccc(-c3ccc(F)c(CN(C)C)c3)cc2)c(CC(C)C)nn1C [DDD99832] | 0.010 |
| Cc1nn(C)c(C)c1N(C)[S+](=O)([O-])c1c(Cl)cc(CCCCCCn2ccnc2)cc1Cl [DDD99833] | 0.018 |
| Cc1nn(C)c(C)c1N(C)[S+](=O)([O-])c1c(Cl)cc(CCCCCn2ccnc2)cc1Cl [DDD99834] | 0.225 |
| CCc1nn(C)c(CC)c1N(C)[S+](=O)([O-])c1c(Cl)cc(CCCN2CCN(C)CC2)cc1Cl [DDD99836] | 0.013 |
| Cc1nn(C)c(C)c1N(C)[S+](=O)([O-])c1ccc(CCCCCCCn2ccnc2)cc1 [DDD99838] | >1 |
| Cc1nn(C)c(C)c1N(C(F)F)[S+](=O)([O-])c1c(Cl)cc(CCCN2CCN(C)CC2)cc1Cl [DDD100086] | 0.012 |
| CCN(c1c(C)nn(C)c1C)[S+](=O)([O-])c1c(Cl)cc(CCCC2CCN(C)CC2)cc1Cl [DDD100088] | 0.003 |
| CCN(c1c(C)nn(C)c1C)[S+](=O)([O-])c1c(Cl)cc(CCCC2CCNCC2)cc1Cl [DDD100091] | 0.004 |
| Cc1nn(C)c(C)c1N(C)[S+](=O)([O-])c1ccc(CCCCCCCCN(C)C)cc1 [DDD100093] | 0.106 |
| Cc1c(N[S+](=O)([O-])c2ccc(-c3ccc(OC(F)(F)F)c(CN(C)C)c3)cc2)c(CC(C)C)nn1C [DDD100140] | >1 |
| Cc1nn(C)c(C)c1N(CC(F)F)[S+](=O)([O-])c1c(Cl)cc(CCCN2CCCNCC2)cc1Cl [DDD100142] | 0.014 |
| Cc1c(N[S+](=O)([O-])c2ccc(-c3ccc(Cl)c(CN(C)C)c3)cc2)c(CC(C)C)nn1C [DDD100143] | 0.017 |
| Cc1nn(C)c(C)c1N(CC(F)F)[S+](=O)([O-])c1c(Cl)cc(CCCC2CCNCC2)cc1Cl [DDD100145] | 0.02 |
| Cc1nn(C)c(C)c1N(CC(F)(F)F)[S+](=O)([O-])c1c(Cl)cc(CCCC2CCNCC2)cc1Cl [DDD100151] | 0.034 |
| Cc1nn(C)c(C)c1N(CC(F)(F)F)[S+](=O)([O-])c1c(Cl)cc(CCCN2CCCN(C)CC2)cc1Cl [DDD100157] | 0.014 |
| Cc1nn(C)c(C)c1N(CC(F)F)[S+](=O)([O-])c1c(Cl)cc(CCCCC2CCN(C)CC2)cc1Cl [DDD100159] | 0.009 |
| Cc1nn(C)c(C)c1N(CC(F)F)[S+](=O)([O-])c1c(Cl)cc(CCCC2CCN(C)CC2)cc1Cl [DDD100160] | 0.013 |
| Cc1nn(C)c(C)c1N(CC(F)F)[S+](=O)([O-])c1c(Cl)cc(CCCOC2CCN(C)CC2)cc1Cl [DDD100161] | 0.006 |
| Cc1nn(C)c(C)c1N(C(F)F)[S+](=O)([O-])c1c(Cl)cc(CCCN2CCCN(C)CC2)cc1Cl [DDD100164] | 0.001 |
| Cc1nn(C)c(C)c1N(CC(F)(F)F)[S+](=O)([O-])c1c(Cl)cc(CCCCC2CCN(C)CC2)cc1Cl [DDD100165] | 0.020 |
| Cc1nn(C)c(C)c1N(C(F)F)[S+](=O)([O-])c1c(Cl)cc(CCCN2CCCNCC2)cc1Cl [DDD100166] | 0.002 |
| Cc1nn(C)c(C)c1N(CC(F)(F)F)[S+](=O)([O-])c1c(Cl)cc(CCCCC2CCNCC2)cc1Cl [DDD100167] | 0.014 |
| Cc1c(N[S+](=O)([O-])c2ccc(-c3cccc(CN4[C@@H](C)CC[C@@H]4C)c3)cc2)c(CC(C)C)nn1C [DDD100790] | 0.269 |
| CCc1nccn1CCCCCCc1cc(Cl)c([S+](=O)([O-])N(c2c(C)nn(C)c2C)C(F)F)c(Cl)c1 [DDD100794] | 0.160 |
| Cc1nn(C)c(C)c1N(C(F)F)[S+](=O)([O-])c1c(Cl)cc(CCCCCCn2ccnc2C)cc1Cl [DDD100795] | 0.005 |
| Cc1nn(C)c(C)c1N(CC(F)F)[S+](=O)([O-])c1c(Cl)cc(CCCN2CCCN(C)CC2)cc1Cl [DDD100802] | 0.004 |

Same assay, conditions: T. brucei cell growth

| Structure (SMILES) | ED50 (μM) T. brucei [µM] |
| --- | --- |
| CCN(CC)Cc1cccc(-c2ccc([S+](=O)([O-])N(C)c3c(CC(C)C)nn(C)c3C)cc2)c1 [DDD88643] | 0.49 |
| Cc1nn(C)c(C)c1N(C)[S+](=O)([O-])c1c(Cl)cc(CCCN2CCN(C)CC2)cc1Cl [DDD88644] | 0.012 |
| Cc1nn(C)c(C)c1N(CC(F)(F)F)[S+](=O)([O-])c1ccc(-c2ccnc(N3CCNCC3)c2)cc1 [DDD88645] | 0.021 |
| CCN(c1c(C)nn(C)c1C)[S+](=O)([O-])c1c(Cl)cc(-c2ccnc(N3CCNCC3)c2)cc1Cl [DDD88646] | 0.002 |
| Cc1nn(C)c(C)c1N(C)[S+](=O)([O-])c1c(Cl)cc(CCCC2CCNCC2)cc1Cl [DDD90022] | 0.002 |
| Cc1nn(C)c(C)c1N(C)[S+](=O)([O-])c1ccc(CCCC2CCN(C)CC2)cc1 [DDD90023] | 0.20 |
| Cc1nn(C)c(C)c1N(CC(F)(F)F)[S+](=O)([O-])c1ccc(-c2cccc(CN3CCN(C)CC3)c2)cc1 [DDD90057] | 0.73 |
| Cc1nn(C)c(C)c1N(C)[S+](=O)([O-])c1ccc(-c2cccc(CC3CCN(C)CC3)c2)cc1 [DDD90091] | 0.063 |
| Cc1nn(C)c(C)c1N(C)[S+](=O)([O-])c1ccc(-c2cccc(CC3CCNCC3)c2)cc1 [DDD90098] | 0.060 |
| Cc1nn(C)c(C)c1N(CC(F)F)[S+](=O)([O-])c1ccc(-c2ccnc(N3CCNCC3)c2)cc1 [DDD90111] | 0.005 |
| Cc1nn(C)c(C)c1N(C)[S+](=O)([O-])c1ccc(CCCC2CCNCC2)cc1 [DDD90112] | 0.270 |
| Cc1nn(C)c(C)c1N(C)[S+](=O)([O-])c1c(Cl)cc(-c2cccc(CN3CCN(C)CC3)c2)cc1Cl [DDD90118] | 0.015 |
| Cc1c(N(C)[S+](=O)([O-])c2ccc(CCCC3CCN(C)CC3)cc2)c(CC(C)C)nn1C [DDD90142] | 0.168 |
| Cc1c(N[S+](=O)([O-])c2ccc(CCCC3CCNCC3)cc2)c(CC(C)C)nn1C [DDD90144] | 0.034 |
| Cc1nn(C)c(C)c1N(C)[S+](=O)([O-])c1ccc(CCCCCN(C)C)cc1 [DDD90145] | 1.00 |
| Cc1nn(C)c(C)c1N(C)[S+](=O)([O-])c1c(Cl)cc(CCCC2CCN(C)CC2)cc1Cl [DDD90146] | 0.002 |

| Structure (SMILES) | ED50 (μM) T. brucei [µM] |
| --- | --- |
| CCN(c1c(C)nn(C)c1C)[S+](=O)([O-])c1c(Cl)cc(CCCN2CCN(C)CC2)cc1Cl [DDD90154] | 0.023 |
| Cc1c(N[S+](=O)([O-])c2ccc(-c3cccc(CN4CCCC4)c3)cc2)c(CC(C)C)nn1C [DDD99739] | 0.058 |
| CNCc1cccc(-c2ccc([S+](=O)([O-])Nc3c(CC(C)C)nn(C)c3C)cc2)c1 [DDD99748] | 0.036 |
| Cc1nn(C)c(C)c1N(C)[S+](=O)([O-])c1c(Cl)cc(CCCN2CC(C)NC(C)C2)cc1Cl (centres unmarked) [DDD99751] | 0.021 |
| Cc1nn(C)c(C)c1N(C)[S+](=O)([O-])c1ccc(CCCCCCN(C)C)cc1 [DDD99753] | 0.406 |
| Cc1nn(C)c(C)c1N(C)[S+](=O)([O-])c1c(Cl)cc(CCCN2CCCNCC2)cc1Cl [DDD99755] | 0.002 |
| Cc1c(N[S+](=O)([O-])c2ccc(-c3cccc(C4CCNCC4)c3)cc2)c(CC(C)C)nn1C [DDD099757] | 0.061 |
| Cc1nn(C)c(C)c1N[S+](=O)([O-])c1ccc(CCCC2CCNCC2)cc1 [DDD99758] | 0.110 |
| Cc1nn(C)c(C)c1N[S+](=O)([O-])c1c(Cl)cc(CCCC2CCNCC2)cc1Cl [DDD99759] | 0.003 |
| Cc1nn(C)c(C)c1N[S+](=O)([O-])c1ccc(CCCCC2CCNCC2)cc1 [DDD99760] | 0.010 |
| Cc1nn(C)c(C)c1NS(=O)(=O)c1ccc(C#CCCC2CCN(C)CC2)cc1 [DDD99761] | 0.240 |
| Cc1c(N(C)[S+](=O)([O-])c2ccc(-c3cccc(C4CCNCC4)c3)cc2)c(CC(C)C)nn1C [DDD99815] | 0.123 |
| Cc1c(N[S+](=O)([O-])c2ccc(-c3cccc(CN(C)C)c3F)cc2)c(CC(C)C)nn1C [DDD99816] | 0.031 |
| Cc1cc(CCCN2CCN(C)CC2)cc(C)c1[S+](=O)([O-])N(C)c1c(C)nn(C)c1C [DDD99818] | 0.047 |
| Cc1nn(C)c(C)c1N[S+](=O)([O-])c1ccc(CCCOC2CCN(C)CC2)cc1 [DDD99820] | 0.020 |
